Laboratory results published in patent US20100260716A1, “COMPOUNDS FOR TREATING DEM[…]” (UCB PHARMA GMBH, priority 2007, published 2010).

Experiments:
[1] = tested on: acute EAE induced by MBP/CFA; assay: Acute experimental allergic encephalomyelitis (EAE) rat model; type: in vivo, female Lewis rats; details: days 0-21, vehicle-treated animals onset at day 9, significantly postponed
Description: EAE is induced in female Lewis rats on day zero of the study by a single inoculum injection of myelin basic protein (MBP) and complete Freund's adjuvant (CFA) containing heat killed Mycobacterium tuberculosis F137 Ra at a concentration of 4 mg/ml (MD Biosciences Ltd, Israel). This MBP/CFA encephalitogenic emulsive inoculum (100 μg MBP+200 μg CFA) is injected at a total dose volume of 100 μl/animal, delivered as 2×50 subcutaneous bilateral injections into the intraplanar paw regions.
Lacosamide is administered by intraperitoneal (i.p.) injection twice daily (b.i.d.) on days 0-21 of the study, in a volume of 10 ml/kg at daily doses of 6, 20 and 60 mg/kg. A vehicle control containing no lacosamide is administered by the same route and at the same frequency.
The duration of the study is 21 days. Careful clinical examinations are carried out and recorded at least once daily in addition to EAE clinical scoring and assessment. […]
Initially, all animals are examined for signs of any neurological responses and symptoms prior to EAE induction (day 0) and thereafter examined on a daily basis through the entire 21-day observation period. To avoid experimental bias, EAE reactions are determined in a blinded fashion, as much as possible, by a staff member unaware of the specific treatment applied. […]

[2] = target: collapsin response mediator protein 2 (CRMP-2) (Homo sapiens, UniProt Q16555); details: statement quoted from poster, Stoehr et al., November 2006; cited from earlier work

## COC[C@@H](NC(C)=O)C(=O)NCc1ccccc1 [lacosamide, (R)-2-acetamido-N-benzyl-3-methoxypropionamide]
[1]; 10 mg/kg b.i.d. i.p.
  Disease onset (day after EAE induction): 12 days
[1]; 30 mg/kg b.i.d. i.p.
  Disease onset (day after EAE induction): 12 days
[2]
  Effect on CRMP-2 and on the effects of neurotrophic factors on axon growth: modulates CRMP-2 and as a consequence attenuates the effects of neurotrophic factors on axon growth
